Test results: ChEMBL document CHEMBL6078688, “Discovery of Novel MyD88 Inhibitor A5S to Alleviate Acute Lung Injury with Favorable Drug-like Properties” (J Med Chem, 2024)
Active and inactive are the calls of the source. No cut-off for these calls is given here.

Assays:
[1] = system: J774.A1; test: Cytotoxicity against mouse J774.A1 cells at 3 to 12 uM by MTT assay; assay type: toxicity, cell-based; details: j774.a1, 12 µM, dose 3-12 µM
[2] = system: J774.A1; test: Inhibition of NF-kappaB signalling pathway in LPS-induced mouse J774.A1 cells assessed as upregulation of IkappaB-alpha expression by Western blotting analysis; assay type: cell-based
[3] = molecular target: T1, Myeloid differentiation primary response protein MyD88 (Homo sapiens, UniProt Q99836); test: Binding affinity to CM5 sensor chip immobilized human MyD88 TIR domain assessed as dissociation constant by SPR analysis
T1 sequence (Q99836 whole entry, the tested form may be a part): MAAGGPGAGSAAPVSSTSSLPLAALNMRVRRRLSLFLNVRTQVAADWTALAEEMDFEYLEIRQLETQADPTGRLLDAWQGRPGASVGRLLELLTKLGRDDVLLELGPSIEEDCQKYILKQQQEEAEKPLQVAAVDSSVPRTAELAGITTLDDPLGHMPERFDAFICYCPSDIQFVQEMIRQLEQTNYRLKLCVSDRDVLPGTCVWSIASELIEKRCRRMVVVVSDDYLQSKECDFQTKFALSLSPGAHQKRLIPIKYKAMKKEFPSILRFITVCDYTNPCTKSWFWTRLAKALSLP

[4] = molecular target: T1, Myeloid differentiation primary response protein MyD88; test: Binding affinity to CM5 sensor chip immobilized human MyD88 DD domain assessed as dissociation constant by SPR analysis
[5] = molecular target: T1, Myeloid differentiation primary response protein MyD88; test: Binding affinity to CM5 sensor chip immobilized human MyD88 TIR domain assessed as thermal stabilization at 10 uM incubated for 4 hrs by cellular thermal shift assay
[6] = system: J774.A1; test: Inhibition of MAPK signalling pathway in LPS stimulated mouse J774.A1 cells assessed as downregulation of p38 phosphorylation by Western blotting analysis; assay type: cell-based
[7] = Drug concentration in Sprague-Dawley rat lung at 20 mg/kg,po administration measured upto 8 hrs by LC-MS/MS analysis; assay type: ADME, organism-based; details: in vivo
[8] = system: Mus musculus; test: Antiinflammatory activity in cecal ligation and puncture induced sepsis C57BL/6 mouse model assessed as reduction in IL-6 level in serum at 20 mg/kg,po administrated with compound for 6 hrs followed by CLP induction and measured after 12 hrs by ELISA; assay type: functional, organism-based; details: time 18.0 hrs
[9] = system: Mus musculus; test: Antiinflammatory activity in cecal ligation and puncture induced sepsis C57BL/6 mouse model assessed as reduction in TNF-alpha level in serum at 20 mg/kg,po administrated with compound for 6 hrs followed by CLP induction and measured after 12 hrs by ELISA; assay type: functional, organism-based; details: time 18.0 hrs
[10] = system: Mus musculus; test: Antiinflammatory activity in cecal ligation and puncture induced sepsis C57BL/6 mouse model assessed as reduction in TNF-alpha level in BALF at 20 mg/kg,po administrated with compound for 6 hrs followed by CLP induction and measured after 12 hrs by ELISA; assay type: functional, organism-based; details: time 18.0 hrs
[11] = system: Mus musculus; test: Antiinflammatory activity in cecal ligation and puncture induced sepsis C57BL/6 mouse model assessed as reduction in IL-6 mRNA level in lung at 20 mg/kg,po administrated with compound for 6 hrs followed by CLP induction and measured after 12 hrs by RT-PCR analysis; assay type: functional, organism-based; details: time 18.0 hrs
[12] = system: Mus musculus; test: Antiinflammatory activity in cecal ligation and puncture induced sepsis C57BL/6 mouse model assessed as reduction in TNF-alpha mRNA level in lung at 20 mg/kg,po administrated with compound for 6 hrs followed by CLP induction and measured after 12 hrs by RT-PCR analysis; assay type: functional, organism-based; details: time 18.0 hrs
[13] = system: Mus musculus; test: Antiinflammatory activity in cecal ligation and puncture induced sepsis C57BL/6 mouse model assessed as reduction in cell effusion in BALF at 20 mg/kg,po administrated with compound for 6 hrs followed by CLP induction and measured after 12 hrs; assay type: functional, organism-based; details: time 18.0 hrs
[14] = system: Mus musculus; test: Antiinflammatory activity in cecal ligation and puncture induced sepsis C57BL/6 mouse model assessed as reduction in neutrophil infiltration in lung at 20 mg/kg,po administrated with compound for 6 hrs followed by CLP induction and measured after 12 hrs by immunohistochemical staining based analysis; assay type: functional, organism-based; details: time 18.0 hrs
[15] = system: Mus musculus; test: Antiinflammatory activity against LPS induced acute lung injury C57BL/6 mouse model assessed as reduction in pulmonary edema by measuring reduction of lung wet to dry ratio at 20 mg/kg,po administrated measured after 48 hrs; assay type: functional, organism-based
[16] = system: Mus musculus; test: Antiinflammatory activity against LPS induced acute lung injury C57BL/6 mouse model assessed as reduction in spleen weight at 20 mg/kg,po administrated with compound for 30 mins followed by LPS treatment and measured after 6 hrs; assay type: functional, organism-based; details: time 6.5 hrs
[17] = system: Mus musculus; test: Antiinflammatory activity against LPS induced acute lung injury C57BL/6 mouse model assessed as reduction in IL-6 level in serum at 20 mg/kg,po administrated with compound for 30 mins followed by LPS treatment and measured after 6 hrs by ELISA; assay type: functional, organism-based; details: time 6.5 hrs
[18] = system: Mus musculus; test: Antiinflammatory activity against LPS induced acute lung injury C57BL/6 mouse model assessed as reduction in IL-6 level in BALF at 20 mg/kg,po administrated with compound for 30 mins followed by LPS treatment and measured after 6 hrs by ELISA; assay type: functional, organism-based; details: time 6.5 hrs
[19] = system: Mus musculus; test: Antiinflammatory activity against LPS induced acute lung injury C57BL/6 mouse model assessed as reduction in histopathological change in lung at 20 mg/kg,po administrated with compound for 30 mins followed by LPS treatment and measured after 6 hrs by H and E staining based analysis; assay type: functional, organism-based; details: time 6.5 hrs
[20] = system: Mus musculus; test: Antiinflammatory activity against LPS induced acute lung injury C57BL/6 mouse model assessed as reduction in of leukocytes in alveolar region at 20 mg/kg,po administrated with compound for 30 mins followed by LPS treatment and measured after 6 hrs by immunohistochemical staining based analysis; assay type: functional, organism-based
[21] = Acute toxicity in C57BL/6 mouse assessed as pathological change in heart at 500 mg/kg,po administration measured upto 11 days by hematoxylin and eosin staining based assay; assay type: organism-based; details: in vivo, 264 h, time < 11 day
[22] = Acute toxicity in C57BL/6 mouse assessed as pathological change in kidney at 500 mg/kg,po administration measured upto 11 days by hematoxylin and eosin staining based assay; assay type: organism-based; details: in vivo, 264 h, time < 11 day
[23] = Acute toxicity in C57BL/6 mouse assessed as pathological change in liver at 500 mg/kg,po administration measured upto 11 days by hematoxylin and eosin staining based assay; assay type: organism-based; details: in vivo, 264 h, time < 11 day
[24] = Acute toxicity in C57BL/6 mouse assessed as pathological change in lung at 500 mg/kg,po administration measured upto 11 days by hematoxylin and eosin staining based assay; assay type: organism-based; details: in vivo, 264 h, time < 11 day
[25] = system: Peritoneal macrophage; test: Antiinflammatory activity in LPS-induced mouse Peritoneal macrophage cells assessed as inhibition of IFN-beta mRNA level at 1.25 to 5 uM by RT-PCR analysis; assay type: functional, cell-based; details: dose 1.25-5 µM
[26] = Drug concentration in Sprague-Dawley rat serum at 1 mg/kg,iv administration measured upto 24 hrs by LC-MS/MS analysis; assay type: ADME, organism-based; details: read-out: Ct
[27] = Cmax in Sprague-Dawley rat at 1 mg/kg,iv administration measured upto 24 hrs by LC-MS/MS analysis; assay type: ADME, organism-based; details: in vivo
[28] = AUC (0 to t) in Sprague-Dawley rat at 20 mg/kg,po administration measured upto 24 hrs by LC-MS/MS analysis; assay type: ADME, organism-based; details: in vivo
[29] = AUC (0 to infinity) in Sprague-Dawley rat at 20 mg/kg,po administration measured upto 24 hrs by LC-MS/MS analysis; assay type: ADME, organism-based; details: in vivo
[30] = Tmax in Sprague-Dawley rat at 20 mg/kg,po administration measured upto 24 hrs by LC-MS/MS analysis; assay type: ADME, organism-based; details: in vivo
[31] = Oral bioavailability in Sprague-Dawley rat at 20 mg/kg administration measured upto 24 hrs by LC-MS/MS analysis; assay type: ADME, organism-based; details: in vivo
[32] = Stability of compound in simulated gastric fluid measured upto 12 hrs; assay type: physicochemical; details: simulated gi fluid
[33] = Stability of compound in enzyme free simulated gastric fluid measured upto 12 hrs; assay type: physicochemical; details: simulated gi fluid
[34] = Stability of compound in enzyme free simulated intestinal fluid measured upto 12 hrs; assay type: physicochemical; details: simulated gi fluid
[35] = Stability of compound in rat serum measured upto 12 hrs; assay type: ADME, cell-free

With `O[C@H](COc1ccc(Br)cc1)CN1CCN(Cc2cc3ccccc3[nH]2)CC1` the Activity [1] was “Non-toxic”, the inhibition [2] was “Active” and the Kd [3] was 15 µM. The Activity [4] was “inactive”, the Activity [5] was “Active” and the inhibition [6] was “Active”. The Drug uptake [7] was “Active”, the Activity [8] was “Active” and the Activity [9] was “Active”. For the same molecule, the Activity [10] was “Active”, the Activity [11] was “Active” and the Activity [12] was “Active”. The Activity [13] was “Active”, the Activity [14] was “Active” and the Activity [15] was “Active”. For the same molecule, the Activity [16] was “Active”, the Activity [17] was “Active” and the Activity [18] was “Active”. For the same molecule, the Activity [19] was “Active”, the Activity [20] was “Active” and the Activity [21] was “Non-toxic”. For the same molecule, the Activity [22] was “Non-toxic”, the Activity [23] was “Non-toxic” and the Activity [24] was “Non-toxic”. The Activity [25] was “inactive”, the concentration at 24 h [26] was 1080 ng/mL and the Cmax [27] was 1080 ng/mL. It also gave an AUC(0-t) at 24 h [28] of 2860 ng·h/mL, an AUC(0-inf) [29] of 3200 ng·h/mL and a Tmax [30] of 3.67 h. For the same molecule, the bioavailability [31] was 20.7%, the Stability [32] was “Stable” and the Stability [33] was “Stable”. The Stability [34] was “Stable” and the Stability [35] was “Stable”.
